# ChEMBL document CHEMBL2074296, “Kinetic analysis of hepatobiliary transport of organic anions in Eisai hyperbilirubinemic mutant rats” (J Pharmacol Exp Ther, 1993)
# Columns and labels:
# [1] = target: T1, ATP-binding cassette sub-family C member 2 (Rattus norvegicus, UniProt Q63120); experiment: TP_TRANSPORTER: biliary excretion in SD rat; assay type: functional, organism-based, Sprague-Dawley, Bile; conditions: in vivo
# [2] = target: T1, ATP-binding cassette sub-family C member 2; experiment: TP_TRANSPORTER: biliary excretion in EHBR rat; assay type: functional, organism-based, Bile; conditions: in vivo
# T1 sequence (Q63120 whole entry): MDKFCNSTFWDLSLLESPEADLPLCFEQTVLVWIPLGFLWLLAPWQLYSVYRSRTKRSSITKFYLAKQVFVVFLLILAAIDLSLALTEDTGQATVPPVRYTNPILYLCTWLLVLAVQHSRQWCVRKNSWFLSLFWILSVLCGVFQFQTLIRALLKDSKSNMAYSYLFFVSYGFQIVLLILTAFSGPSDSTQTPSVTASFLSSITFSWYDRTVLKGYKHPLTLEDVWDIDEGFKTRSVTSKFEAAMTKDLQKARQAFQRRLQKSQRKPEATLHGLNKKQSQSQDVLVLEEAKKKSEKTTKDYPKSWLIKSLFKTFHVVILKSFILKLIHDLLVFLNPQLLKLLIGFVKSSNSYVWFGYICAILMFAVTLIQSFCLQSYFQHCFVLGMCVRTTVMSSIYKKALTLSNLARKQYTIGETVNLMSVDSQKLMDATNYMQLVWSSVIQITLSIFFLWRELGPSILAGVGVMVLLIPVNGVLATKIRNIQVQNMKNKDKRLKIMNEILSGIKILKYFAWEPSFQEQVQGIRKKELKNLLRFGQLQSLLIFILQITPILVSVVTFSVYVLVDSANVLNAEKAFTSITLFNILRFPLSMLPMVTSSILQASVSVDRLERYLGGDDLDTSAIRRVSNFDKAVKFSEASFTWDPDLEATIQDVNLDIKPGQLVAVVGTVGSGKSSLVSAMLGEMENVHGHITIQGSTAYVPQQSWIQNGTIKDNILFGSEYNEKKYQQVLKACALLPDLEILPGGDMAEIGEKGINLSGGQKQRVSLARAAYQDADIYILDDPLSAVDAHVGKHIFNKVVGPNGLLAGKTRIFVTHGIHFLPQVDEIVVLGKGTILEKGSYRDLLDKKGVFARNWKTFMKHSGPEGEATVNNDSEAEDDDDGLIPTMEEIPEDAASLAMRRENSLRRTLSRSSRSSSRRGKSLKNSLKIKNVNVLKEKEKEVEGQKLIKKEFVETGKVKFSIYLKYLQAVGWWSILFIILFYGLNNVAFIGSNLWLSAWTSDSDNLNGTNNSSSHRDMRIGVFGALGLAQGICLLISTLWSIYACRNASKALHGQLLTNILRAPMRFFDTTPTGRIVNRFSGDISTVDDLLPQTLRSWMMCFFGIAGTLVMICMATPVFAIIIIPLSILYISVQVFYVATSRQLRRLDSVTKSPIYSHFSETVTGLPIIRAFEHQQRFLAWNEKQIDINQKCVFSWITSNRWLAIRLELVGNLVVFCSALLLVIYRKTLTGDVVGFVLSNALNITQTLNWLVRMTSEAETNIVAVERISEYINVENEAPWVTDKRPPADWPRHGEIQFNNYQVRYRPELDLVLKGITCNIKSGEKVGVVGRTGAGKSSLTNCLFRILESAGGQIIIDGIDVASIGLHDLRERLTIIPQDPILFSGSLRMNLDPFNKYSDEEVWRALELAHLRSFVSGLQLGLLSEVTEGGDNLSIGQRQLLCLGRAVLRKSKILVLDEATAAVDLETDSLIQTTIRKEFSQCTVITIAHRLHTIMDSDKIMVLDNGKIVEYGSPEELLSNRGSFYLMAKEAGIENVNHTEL
Activity [1],Activity [2],SMILES
substrate [+],substrate [+],CO/N=C(\C(=O)N[C@@H]1C(=O)N2C(C(=O)O)=C(CSc3nc(C)c(CC(=O)O)s3)CS[C@H]12)c1csc(N)n1 [CEFODIZIME]
substrate [+],substrate [+],O=C1OC(c2ccc(OS(=O)(=O)O)cc2)(c2ccc(OS(=O)(=O)O)cc2)c2c(Br)ccc(Br)c21 [DIBROMOSULFOPHTHALEIN]
substrate [+],substrate [+],CC1(C)C(/C=C/C=C/C=C/C=C2/N(CCCCS(=O)(=O)[O-])c3ccc4ccccc4c3C2(C)C)=[N+](CCCCS(=O)(=O)[O-])c2ccc3ccccc3c21.[Na+] [INDOCYANINE GREEN]
